IC50 data for one compound are collected here from publication PMC9049071 (RSC Advances, 2020).

Structures are written as SMILES.

For orientation: IC50 means the concentration at which inhibition is half-maximal.

Assay [1] concerns breast cancer cell line MCF-7. Briefly: Activity against breast cancer cell line MCF-7. Type of assay: cell-based. The following applies: Homo sapiens, MCF7, read-out: IC50 against MCF-7.
The test system of assay [2] is endothelial human sapiens cell line EA.hy926. In words: Activity against endothelial cell line EA.hy926. Type of assay: cell-based. Conditions: EA.hy 926, read-out: IC50 against EA.hy926.

With `CCc1cc(=O)n2c(=O)/c(=C/c3ccc(-c4ccc(C)cc4)cc3)sc2n1` [Compound 15, (Z)-7-ethyl-2-((4′-methyl-[1,1′-biphenyl]-4-yl)methylene)-5H-thiazolo[3,2-a]pyrimidine-3,5(2H)-dione], the IC50 in assay [1] and in assay [2] was more than 250 µM each time.
